Format in all cases: cell-based
In assay [1] the test system is respiratory chain. The assay can be described thus: Cell silencing experiment 2: cytc-436 siRNA, live cell imaging with MP-1. The method, then: The cells are cultured in the imaging culture dish for 6 h, and then treated with cytc-436 (designed silent siRNA) or non-targeting RNA for a certain period of time, and then live cell imaging is performed under a confocal laser scanning microscope. After 6 hours of ctyc-436 treatment, Hoechst 33342 and MTG staining are good, but about 5% of the cells could not be labeled by MP-1. In contrast, the staining effect of MP-1 in the control group using non-targeting RNA is still good.

The subject of assay [2] is respiratory chain. The assay can be described thus: Cell silencing experiment 1: cytc-290 siRNA, live cell imaging with MP-1. The method, then: Cells are cultured in imaging culture dishes for 6 h and then treated with cytc-290 (designed silent siRNA) or nontargeting RNA. After a certain period of action, live cell imaging is performed under a confocal laser scanning microscope. After 12 hours of ctyc-290 treatment, Hoechst 33342 and MTG staining are good, but about 10% of the cells could not be labeled by MP-1. About 30% of the cells could not be labeled by MP-1 after 18 hours of treatment with ctyc-290. As shown in FIGS. 8A-8E, in contrast, the staining effect of MP-1 in the control group using non-targeted RNA is still good.

The subject of assay [3] is L929 cells (mouse fibroblasts). The assay can be described thus: Fluorescent labeling of L292/L929 cells by IM probes (confocal imaging). Conditions: 30 minutes in the dark. The protocol: Cell line: L929 cells (mouse fibroblasts).
Cell culture: Cells are cultured in a CO2 incubator (37° C., 5% CO2) with DMEM medium (penicillin (100 U/mL) and streptomycin (100 μg/mL)).
(§1) Cell imaging experiment: Cells are cultured on 15 mm grade bottom cell culture dishes. Before labeling the cells with the probe, the culture medium is removed, and the cells are washed twice with Hank's buffer solution to remove the remaining culture medium. Then, 200 μL of probe IM-1 (10 μM) is added to the culture dish, and the cells are incubated in the dark for 30 minutes. The cells are washed twice with Hank's buffer solution to remove any remaining probe, and then 1 mL of Hank's solution is added to the culture dish. The cells are observed under a laser confocal microscope with a 100× objective. The excitation wavelength is 543 nm, and the emission wavelength is 550-600 nm.
as §1, with “IM-2 (5” for “IM-1 (10”
Cell imaging experiment: Cells are cultured on 15 mm grade bottom cell culture dishes. Before labeling the cells with the probe, the culture medium is removed, and the cells are washed twice with Hank's buffer solution to remove the remaining culture medium. Then, 200 μL of probe IM-3 (2 μM) is added to the culture dish, and the cells are incubated in the dark for 30 minutes. The cells are washed twice with Hank's buffer solution to remove any remaining probe, and then 1 mL of Hank's solution is added to the culture dish. […]

The mark [4] stands for this setting: after 6 hours of cytc-436 treatment.
The mark [5] stands for this setting: after 12 hours of cytc-290 treatment.

In the case of `C#CCN(C(C#Cc1ccccc1)c1ccccc1)S(=O)(=O)c1ccccc1` (stereo not shown) [PA-1], the results for the “cells that could not be labeled by MP-1” value with respiratory chain [1] (setting [4]), with respiratory chain [2] (setting [5]) and in the assay on respiratory chain [2] (after 18 hours of cytc-290 treatment) were “about 5%”, “about 10%” and “About 30%”, respectively. Besides, the “staining effect in control group” value in the assay on respiratory chain [1] (control group using non-targeting RNA) and with respiratory chain [2] (control group using non-targeted RNA) was “still good” throughout.
For the compound `CCCCCCCCCCCCCOc1ccc(C2=NCc3c2cc2ccc(Cl)cc2c3-c2ccccc2)cc1` [IM-2], in assay [3] (probe 5 μM, excitation 543 nm, emission 550-600 nm), the “organelles fluorescently labelled by the probe” value is “labels the lysosomes and lysosomal autolysosomes in the cells”.
For the compound `c1ccc(C2=NCc3cc4ccccc4cc32)cc1` [IM-1], the “organelles fluorescently labelled by the probe” value in assay [3] (probe 10 μM, excitation 543 nm, emission 550-600 nm) was “labels the lysosomes and lysosomal autolysosomes in the cells”.
As for `CCOc1ccc(-c2nc3ccc(-c4nc5ccc(N6CCN(C)CC6)cc5[nH]4)cc3[nH]2)cc1` [Hoechst 33342, reference compound], the staining result in the assay with respiratory chain [1] (setting [4]) and in the assay on respiratory chain [2] (setting [5]) was “good” throughout.
As to `CCCCCCCCCCCCCOc1ccc(C2=NCc3c2cc2ccc(Cl)cc2c3-c2ccccc2)cc1` [IM-3], the “organelles fluorescently labelled by the probe” value in assay [3] (probe 2 μM, excitation 488 nm, emission 600-650 nm) is “labels the lysosomes and lysosomal autolysosomes in the cells”.

Source of the values: US20250189532A1, “1,6-DIYNE COMPOUND, ITS PREPARATION METHOD, AND PRODUCTS OBTAINED USING 1,6-DIYNE COMPOUND AS RAW MATERIAL AND THEIR APPLICATIONS” (Fujian Institute of Research on the Structure of Matter, …, priority 2022, published 2025).
